Data taken from patent US20240182521A1, “CELL-PENETRATING PEPTIDE VARIANT AND USE THEREOF” (REGEN INNOPHARM INC., priority 2021, published 2024).

Assays:
[1] = tested on: Human umbilical vein endothelial cells (Huvec); assay: Blood vessel formation on cytokine-free Matrigel; assay type: cell-based; conditions: Huvec treated for one day
Excerpt: Human umbilical vein endothelial cells (Huvec) were dispensed on a cytokine-free Matrigel and treated with LPX101 for one day (n=3, 1 expt). […], the blood vessel formation was confirmed under a microscope, and blood vessel formation parameters including the number of nodules, the number of intravascular junctions, and the number of master segments were quantified.

NIH3T3 cells [2] = assay: Glycolysis, extracellular acidification rate (ECAR), Seahorse XF analyzer; assay type: cell-based, mouse
Description: NIH3T3 cells were incubated in a glucose-free medium for 1 day and then sequentially treated with glucose, oligomycin, and 2-DG, and an extracellular acidification rate (ECAR) was measured as a measure of lactate production using a Seahorse extracellular flux (XF) analyzer and quantification and profile of ECAR were confirmed in cells treated with LPX peptide (Mean SEM n=3, *; p<0.05).

[3] = tested on: diabetic human epidermal keratinocyte (DHEK); assay: Cell migration across a scratched boundary; assay type: cell-based; conditions: for cell migration compared to LPX101: DHEK cells, at lower concentrations than LPX101
Description: (§1) An effect of LPX101 peptide on cell growth was confirmed in a NIH3T3 cell line, and the effects of LPX101, LPX102, and LPX103 peptides on cell migration were confirmed in diabetic human epidermal keratinocyte (DHEK) as a diabetic cell line. Specifically, mMSC or NIH3T3 cells were treated with the LPX101 peptide, incubated for 1 hour, and then washed. A % increase in cell growth by LPX treatment was confirmed by measuring the number of cells after 3 days of treatment and calculating a relative proliferation rate as % compared to a control group (n=3). Additionally, in order to confirm the cell migration effect, DHEK cells were treated with LPX101, LPX102, and LPX103 peptides, incubated for 1 hour, and then washed. Thereafter, the migration of cells across a scratched boundary was measured 72 hours after treatment. The number of cells that migrated across a scratch line was measured by image analysis using ImageJ.

[4] = tested on: NIH3T3 cell line and mouse mesenchymal stem cells (mMSCs); assay: Cell penetrating effect (FACS, confocal microscopy) of FITC-attached peptides; assay type: cell-based; conditions: for cell permeability compared to LPX101: compared to LPX101 (2 μM)
Excerpt: A cell penetrating effect was confirmed in penetrating peptides LPX101 (SEQ ID NO: 11), LPX102 (SEQ ID NO: 12), and LPX103 (SEQ ID NO: 13) having three structures including a signal peptide, an RNA binding affinity residue, and an RNA binding residue (FIG. 1), and two zinc finger motifs. Specifically, in order to measure cell penetrating efficiency, respective peptides that may have been attached to the cell membrane surface were removed by applying a Heparin & Trypsin washing method used in a Keplan group [Kaplan I M, Wadia J S, Dowdy S F (2005) Cationic TAT peptide transduction domain enters cells by macropinocytosis. J Controlled release 102: 247-253] to a NIH3T3 cell line and mouse mesenchymal stem cells (mMSCs). […] Then, the cells were washed three times with PBS and detached with trypsin, and then FACS analysis was performed. In addition, whether each peptide actually existed in the nucleus or cytoplasm of the cell was confirmed by confocal microscopy after 18 hours of peptide treatment, and membrane binding was labeled with PKH.

NIH3T3 cell line = assay: Cell growth (relative proliferation rate vs control, 3 days); assay type: cell-based, mouse; conditions: concentrations of 2 μM and 5 μM; 3 days after treatment
Description: as §1

[5] = tested on: diabetic mouse model (db/db); assay: Diabetic wound healing by combined treatment with EGF; assay type: in vivo; conditions: db/db mice, 8 mm punch wound
Excerpt: The diabetic wound healing effect by combined treatment with LPX peptide and EGF was confirmed.

NIH3T3 cells [6] = assay: Cell migration effects, Table 1; assay type: cell-based, mouse; conditions: vehicle = 1
Description: Various variants of the LPX peptides were prepared as illustrated in FIG. 18. Specifically, various constructs (26 constructs including 101) were prepared by adding various mutations (substitution of a CPP region, amino acid mutation of an RNA binding portion and a zinc finger structure, and addition of his-tag) to the structure of LPX101 in FIG. 19 (FIG. 20).

diabetic mice (db/db) = assay: Histological evaluation of wound re-epithelialization (H/E, day 10); assay type: in vivo, mouse; conditions: day 10 after initial injury
Excerpt: In order to histologically evaluate wound re-epithelialization in diabetic mice by LPX peptides 101, 102 and 103, wound tissues from diabetic mice (db/db) treated by each LPX were H/E stained on day 10 after initial injury and confirmed under a microscope (50X and 100x).

[7] = tested on: diabetes model mice (db/db); assay: Diabetic wound healing in diabetes model mice (db/db); assay type: in vivo, mouse; conditions: for diabetic wound healing effect (wound healing kinetics and re-epithelialization) compared to LPX101: db/db mouse model
Description: (§2) The skins of wild type (WT) mice and diabetes model mice (db/db) (n=14 each) were punched with an 8 mm diameter puncher and treated with LPX101 (2 mg/ml, 20 μl) or PBS daily for 14 days and subjected to wound dressing. The wound healing effect was confirmed by analyzing an initial wound area and a re-epithelialization area using ImageJ (mean SEM n=3, *; p<0.05). In addition, the wound healing effect in wounds treated with LPX101 was histologically evaluated. Specifically, diabetic mice (db/db) were stained with H/E or trichrome at 7 and 14 days after wound induction and then confirmed under a microscope, and re-epithelialization and granulation tissue were quantified using ImageJ (n=3, ***; p<0.001). In addition, the wounds of db/db mice were treated with LPX101, and the tissue epidermis after 14 days was histologically analyzed.
(§3) The wound healing effects of LPX101, LPX102, and LPX103 were confirmed in an STZ-induced diabetic mouse model. […] Thereafter, according to a schedule shown in FIG. 12A, PBS (negative control), EGF (positive control) 50 μg/ml, LPX101 2 mg/ml (20 μl), LPX102 and LPX103 (2 mg/ml (20 μl)) were treated, respectively, and then the effect of wound healing in a diabetes-induced mouse model was confirmed through imaging, re-epithelialization, and diabetes phenotypes (hyperglycemia and impaired glucose tolerance test (IPGTT)) (n=10 for each group, *; p<0.05). Additionally, to compare the regenerative activity of LPX peptides in a diabetic mouse model, wound healing kinetics measured by a % non-epithelialized area to an initial wound area (n=8 for each group), and quantification of re-epithelialization analyzed as % of a re-epithelialized area to the initial wound area were confirmed.

wild type (WT) mice = assay: Skin punch wound healing in wild type mice; assay type: in vivo, mouse; conditions: 2 mg/ml, 20 μl daily for 14 days
Description: as §2

[8] = tested on: STZ-induced diabetic mouse model; assay: Wound healing in STZ-induced diabetic mouse model; assay type: in vivo; conditions: 2 mg/ml (20 μl)
Description: as §3

[9] = tested on: diabetic model mice (db/db); assay: Blood vessel formation in diabetic wounds (histology, day 7); assay type: in vivo, mouse; conditions: once daily, day 7 after wounding
Description: Since diabetic ulcers were hardly treated by insufficient vascular supply due to impaired angiogenesis and ischemic necrosis, it was confirmed whether the LPX peptide contributed to blood vessel formation in diabetic wound healing. Specifically, diabetic model mice (db/db) were wounded and then treated with LPX 103 or EGF once daily, and the recovery of angiogenesis was analyzed on day 7 after wounding, and in order to visualize the extravasation of red blood cells within the tissue, the wound and entrance (red dotted box) of each group were magnified and images were confirmed.

NIH3T3 cells [10] = assay: Intracellular stability, cell proliferation and migration of RNA binding / zinc finger region variants; assay type: cell-based, mouse
Description: The protein stability of variants with mutations in the RNA binding region and the zinc finger region was confirmed. Specifically, LPX103 variants with mutated amino acid residues for RNA binding during cell migration were treated with NIH3T3 cells for 1 day, respectively, and based on the molecular modeling program, the intracellular stabilization effect of each peptide was analyzed after 72 hours. The mutation energy of each amino acid residue was confirmed, and variants that may cause<−1 Kcal/mol due to substitution were selected as potential mutations that may increase the stability and activity of the peptide (FIGS. 23 and 24). The effects of the selected variants on cell proliferation and cell migration were confirmed in NIH3T3 cells (FIG. 25), and as a result, mutations in the RNA binding region and the zinc finger region that improved or decreased the stability of the peptide in the cell were confirmed (FIG. 26).

Row | Substance | glucose metabolism (glycolysis), ECAR (NIH3T3 cells [2]) | diabetic wound healing effect in combination with EGF [5] | Effects on cell migration (3 expts) (NIH3T3 cells [6]; 1 uM) | Effects on cell migration (3 expts) (NIH3T3 cells [6]; 5 uM) | re-epithelialization of diabetic wounds (histology) (diabetic mice (db/db)) | cell migration compared to LPX101 [3] | cell permeability compared to LPX101 [4] | wound healing effect compared to LPX101 [8] | diabetic wound healing effect (wound healing kinetics and re-epithelialization) compared to LPX101 [7] | other results
1 | LPX101: cell-penetrating peptide consisting of amino acid sequence SEQ ID NO: 11 (RRPKGKSMQKRRSKGDRCYNCGGLDHHAKECKLPPQPKKCHFCQSISHMVASCPLKAQQK; LPX101) | promoted glucose metabolism (glycolysis) | improved when treated in combination with EGF | 1.4 | 1.3 | significantly improved re-epithelialization | – | – | – | – | blood vessel formation (capillary vascular rings) [1]: form more mature capillary vascular rings; migration of DHEK cells ([3]; 72 hours after treatment): promoted the migration of DHEK cells; cell permeability ([4]; concentrations of 2 μM and 5 μM): high cell permeability; intracellular localization ([4]; confocal microscopy after 18 hours of peptide treatment): most of LPX101 was present in the cytoplasm; cell growth (NIH3T3 cell line): promoted cell growth; healing of diabetic wounds ([7]; db/db mice, 2 mg/ml, 20 μl daily for 14 days): significantly accelerated the healing of diabetic wounds; granulation tissue, day 7 ([7]; db/db mice, day 7 (middle of the healing process)): early formation of granulation tissue; remodeling of the regenerated wound epithelium ([7]; db/db mice, day 14): accelerated; granulation tissue, day 14 ([7]; db/db mice, day 14 (end of the healing process)): early shrinkage (remodeling) of granulation tissue; hyperkeratosis, parakeratosis and acanthosis of the epidermis ([7]; db/db mice, histological analysis on day 14): reduced early; wound healing (wild type (WT) mice): accelerated wound healing
2 | LPX102: cell-penetrating peptide consisting of amino acid sequence SEQ ID NO: 12 (GSERRPKGKSMQKRRSKGDRCYNCGGLDHHAKECKLPPQPKKCHFCQSISHMVASCPL; LPX102) | promoted glucose metabolism (glycolysis) | improved when treated in combination with EGF | 1.2 | 1.2 | significantly improved re-epithelialization | promoted cell migration to a similar extent to LPX101 | high cell permeability similar to LPX101 | better effects than LPX101 | better diabetic wound healing effect than LPX101 | –
3 | LPX103: cell-penetrating peptide consisting of amino acid sequence SEQ ID NO: 13 (GSERRPKGKSMQKRRSKGDRCYNCGGLDHHAKECKL; LPX103) | promoted glucose metabolism (glycolysis) | improved when treated in combination with EGF | 1.3 | 1.3 | significantly improved re-epithelialization | promoted cell migration to a similar extent to LPX101 | high cell permeability similar to LPX101 | better effects than LPX101 | better diabetic wound healing effect than LPX101 | capillary formation compared to EGF [9]: more mature capillary formation; hemorrhage (extravasation of RBC) compared to EGF [9]: less hemorrhage (extravasation of RBC); stability and biological activity (NIH3T3 cells [10]): high stability and biological activity
